Patent publication US4039669A, “Composition for topical application and use thereof” (Sterling Drug Inc., priority 1975, dated 1977)

Assays:
[1] = in vivo; cited from earlier work
[2] = tested on: testosterone-stimulated flank organs; assay: Effect on testosterone-stimulated flank organs in the castrated hamster (topical); format: in vivo; conditions: for Flank Organ Cholest., Mean ± S.E. / Flank Organ Diameter, Mean ± S.E. / Flank Organ Wet Wgt, Mean ± S.E. / Flank Organ Develop. (Med. Score): topical; for Flank Organ Cholest., Mean ± S.E. / Flank Organ Diameter, Mean ± S.E. / Flank Organ Wet Wgt, Mean ± S.E.: 14 times over 2 weeks; for Inhibition of testosterone-stimulated increase in the cholesterol contact of the flank organs (in words) / Reduction of testosterone-stimulated increase in flank organ diameter (in words) / Suppression of flank organ development, degree of pigmentation (in words) / Wet weight of the flank organs (in words): topical with 1 μg TP; for Flank Organ Develop. (Med. Score): degree of pigmentation, score 0 to 4, 2 weeks
Description: (§1) The effect of 17α-(n-propyl)androst-4-en-17β -ol-3-one and 17α-(n-butyl)androst-4-en-17β -ol-3-one on testosterone-stimulated flank organs and on endocrine organs in the castrated hamster was determined as follows:
(§2) Castrated hamsters were treated on both flank organs topically with testosterone propionate (TP) equivalent to 1 microgram of testosterone with or without the test agents dissolved in 5 microliters of absolute ethanol 14 times over a 2 weeks period. The hamsters were 4-5 weeks of age (55 to 75 grams body weight) and were caged individually. After the end of the two-weeks period, the development (degree of pigmentation) and diameter of the flank organs were assessed and measured, and the flank organs were punched out with an 8 mm cork borer for determination of wet weight and cholesterol content. Endocrine organ weights (adrenal gland, seminal vesicle and thymus gland) were also determined.
In the first table TP refers to testosterone propionate, Compd. I refers to 17α-(n-propyl)androst-4-en-17β -ol-3-one, Compd. II refers to 17α-(n-butyl)androst-4-en-17β -ol-3-one, and n refers to the number of animals in each group.

[3] = tested on: endocrine organs (adrenal gland, seminal vesicle and thymus gland); assay: Endocrine organ weights in the castrated hamster after topical treatment; format: in vivo; conditions: for Endocr. Organ Wgts, Mean ± S.E.: Adrenal Gland / Endocr. Organ Wgts, Mean ± S.E.: Seminal Vesicle / Endocr. Organ Wgts, Mean ± S.E.: Thymus Gland: topical, 2 weeks; for Weights of the endocrine organs (in words): topical application, castrated hamsters
Description: as §1, §2

[4] = tested on: flank organ sebaceous glands; assay: Daily topical application to normal, sexually mature male hamsters; format: in vivo, hamster; conditions: 200 μg daily, 6 weeks
[5] = tested on: steroid 5α-reductase; assay: Inhibition of conversion of testosterone to dihydrotestosterone, minced hamster flank organ, tritiated testosterone; format: biochemical
Description: The effectiveness of 17α-(n-propyl)androst-4-en-17β -ol-3-one in inhibiting the conversion of testosterone dihydrotestosterone by the enzyme steroid 5α-reductase was measured using minced hamster flank organ as a source of the enzyme and tritiated testosterone as a substrate. At concentrations of one-hundredth molar and one-thousandth molar, 17α-(n-propyl)androst-4-en-17β -ol-3-one was 100% and 53% inhibitory, respectively.

[6] = Standard test procedures for androgenic, estrogenic or anabolic properties; format: in vivo
[7] = Progestational activity (Clauberg assay); format: in vivo
Description: When 17α-(n-propyl)androst-4-en-17β -ol-3-one was administered intramuscularly, its progestational activity was about one-fortieth that of progesterone.

[8] = Serum testosterone levels after topical application to sexually mature hamsters; format: in vivo, hamster; conditions: 200 μg per flank organ topically, 3 weeks
Description: When 17α-(n-propyl)androst-4-en-17β -ol-3-one was topically applied to sexually mature hamsters at 200 μg per flank organ for a period of 3 weeks, serum testosterone levels were unchanged compared with untreated controls.

[9] = Subcutaneous and oral toxicity (LD50) in the mouse; conditions: in vivo
Excerpt: (§3) 17α-(n-Propyl)androst-4-en-17β -ol-3-one is conveniently prepared by a three-step synthesis from 3β -acetoxyandrost-5-en-17-one in an over-all yield of 43%. The first step is a Grignard reaction with allylmagnesium bromide to give 17α-allylandrost-5-ene-3β,17β-diol in 81% yield. The second step is a hydrogenation over 10% palladium-on-carbon catalyst to afford 17α-propylandrost-5-ene-3β, 17β-diol in 88% yield. The third step is an Oppenauer oxidation with aluminum isopropoxide to give the desired 17α-(n-propyl)androst-4-en-17β -ol-3-one in 60.5% yields.

[10] = Subcutaneous and oral toxicity (LD50) in the rat; conditions: in vivo
Excerpt: as §3

[11] = tested on: acne or sebum secretion; conditions: tried topically; cited from earlier work
[12] = tested on: steroid 5α-reductase; conditions: cited from earlier work; for Anti-androgenic activity by inhibitory effects on steroid 5α-reductase activity: laboratory animals
[13] = castrated hamsters, 1 μg TP + 200 μg test compound
[14] = Groups IV, V: 1 μg TP + 200 μg test compound
[15] = castrated hamsters, 1 μg TP + 100 μg test compound
[16] = Group III: 1 μg TP + 100 μg test compound
[17] = oral, read-out: Oral toxicity (LD50)
[18] = sc, subcutaneous, read-out: Subcutaneous toxicity (LD50)
[19] = 200 μg topically with 1 μg testosterone propionate, castrated hamsters
[20] = castrated hamsters, 1 μg TP alone

Compound: CC[C@]1(O)CC[C@H]2[C@@H]3CCC4=CC(=O)CC[C@]4(C)[C@H]3CC[C@@]21C [17α-ethylandrost-4-en-17β-ol-3-one]
- Systemic androgenic activity [1]: have systemic androgenic activity

Compound: CCCC[C@]1(O)CC[C@H]2[C@@H]3CCC4=CC(=O)CC[C@]4(C)[C@H]3CC[C@@]21C [Compd. II, 17α-(n-butyl)androst-4-en-17β -ol-3-one]
- Flank Organ Cholest., Mean ± S.E. [2, 13]: 151 ± 8.9 µg
- Flank Organ Diameter, Mean ± S.E. [2, 13]: 3.24±0.13 mm
- Flank Organ Wet Wgt, Mean ± S.E. [2, 13]: 21.6 ± 1.2 mg
- Inhibition of testosterone-stimulated increase in the cholesterol contact of the flank organs (in words) ([2]; castrated hamsters): effective as inhibitors
- Reduction of testosterone-stimulated increase in flank organ diameter (in words) ([2]; castrated hamsters): effective
- Suppression of flank organ development, degree of pigmentation (in words) ([2]; castrated hamsters): effective in suppressing flank organ development
- Wet weight of the flank organs (in words) ([2]; castrated hamsters): reduced the wet weight of the flank organs below that recorded for the vehicle control
- Flank Organ Develop. (Med. Score) ([2]; 1 μg TP + 200 μg test compound): 1.0
- Flank Organ Develop. (Med. Score) ([2]; 1 μg TP + 200 μg test compound, listed as Compound II): 1
- Endocr. Organ Wgts, Mean ± S.E.: Adrenal Gland [3, 14]: 12.4±0.53 Mg
- Endocr. Organ Wgts, Mean ± S.E.: Seminal Vesicle [3, 14]: 34.0±4.1 Mg
- Endocr. Organ Wgts, Mean ± S.E.: Thymus Gland [3, 14]: 60.7±7.6 Mg
- Weights of the endocrine organs (in words) [3]: not significantly altered

Compound: CCC[C@]1(O)CC[C@H]2[C@@H]3CCC4=CC(=O)CC[C@]4(C)[C@H]3CC[C@@]21C [Compd. I, 17α-(n-propyl)androst-4-en-17β -ol-3-one]
- Flank Organ Cholest., Mean ± S.E. [2, 15]: 162 ± 5.8 µg
- Flank Organ Diameter, Mean ± S.E. [2, 15]: 3.71±0.22 mm
- Flank Organ Wet Wgt, Mean ± S.E. [2, 15]: 28.5 ± 1.0 mg
- Flank Organ Cholest., Mean ± S.E. [2, 13]: 163 ± 9.4 µg
- Flank Organ Diameter, Mean ± S.E. [2, 13]: 3.91±0.14 mm
- Flank Organ Wet Wgt, Mean ± S.E. [2, 13]: 27.5 ± 1.3 mg
- Inhibition of testosterone-stimulated increase in the cholesterol contact of the flank organs (in words) ([2]; castrated hamsters): effective as inhibitors
- Reduction of testosterone-stimulated increase in flank organ diameter (in words) ([2]; castrated hamsters): effective
- Suppression of flank organ development, degree of pigmentation (in words) ([2]; castrated hamsters): effective in suppressing flank organ development
- Wet weight of the flank organs (in words) ([2]; castrated hamsters): reduced the wet weight of the flank organs below that recorded for the vehicle control
- Flank Organ Develop. (Med. Score) ([2]; 1 μg TP + 100 μg test compound): 3.5
- Flank Organ Develop. (Med. Score) ([2]; 1 μg TP + 200 μg test compound): 3.0
- Flank Organ Develop. (Med. Score) ([2]; 1 μg TP + 200 μg test compound, listed as Compound I): 3
- Endocr. Organ Wgts, Mean ± S.E.: Adrenal Gland [3, 16]: 12.1±0.32 Mg
- Endocr. Organ Wgts, Mean ± S.E.: Seminal Vesicle [3, 16]: 39.5±2.9 Mg
- Endocr. Organ Wgts, Mean ± S.E.: Thymus Gland [3, 16]: 58.3±6.7 Mg
- Endocr. Organ Wgts, Mean ± S.E.: Adrenal Gland [3, 14]: 11.6±0.48 Mg
- Endocr. Organ Wgts, Mean ± S.E.: Seminal Vesicle [3, 14]: 34.0±2.6 Mg
- Endocr. Organ Wgts, Mean ± S.E.: Thymus Gland [3, 14]: 43.5±4.9 Mg
- Weights of the endocrine organs (in words) [3]: not significantly altered
- Flank organ development [4]: caused a regression in flank organ development
- Seminal vesicle weights [4]: not reduced
- Size and lipid content of the sebaceous glands [4]: significantly reduced
- Inhibition of conversion of testosterone to dihydrotestosterone by steroid 5α-reductase ([5]; concentration one-hundredth molar): 100%
- Inhibition of conversion of testosterone to dihydrotestosterone by steroid 5α-reductase ([5]; concentration one-thousandth molar): 53%
- Androgenic, estrogenic or anabolic properties [6]: devoid of any significant androgenic, estrogenic or anabolic properties
- Progestational activity, Clauberg assay ([7]; 32 mg/kg applied topically): minimal progestational activity
- Progestational activity relative to that of progesterone ([7]; administered intramuscularly): about one-fortieth
- Serum testosterone levels compared with untreated controls [8]: unchanged
- LD50 [9, 17]: > 5000 mg/kg
- LD50 [9, 18]: > 1000 mg/kg
- LD50 [10, 17]: > 5000 mg/kg
- LD50 [10, 18]: > 1000 mg/kg

Compound: CC(=O)O[C@]1(C(C)=O)CC[C@H]2[C@@H]3C=C(Cl)C4=CC(=O)[C@@H]5C[C@@H]5[C@]4(C)[C@H]3CC[C@@]21C [cyproterone acetate, 6-chloro-1α , 2α-methylene-4,6-pregnadien-17α-o1-3,20-dione acetate]
- Effectiveness against acne or sebum secretion [11]: not to be effective

Compound: CC(=O)[C@H]1CC[C@H]2[C@@H]3CCC4=CC(=O)CC[C@]4(C)[C@H]3CC[C@]12C [progesterone, reference compound]
- Progestational activity, Clauberg assay ([7]; 2 mg/kg applied topically): maximal response

Compound: COC(=O)[C@H]1CC[C@H]2[C@@H]3CCC4=CC(=O)CC[C@]4(C)[C@H]3CC[C@]12C [methyl ester thereof]
- Anti-androgenic activity by inhibitory effects on steroid 5α-reductase activity [12]: exhibit anti-androgenic activity

Compound: C[C@]12CCC(=O)C=C1CC[C@@H]1[C@@H]2CC[C@@]2(C)[C@H]1CC[C@]2(C)O [Methyltestosterone]
- Systemic androgenic activity [1]: have systemic androgenic activity

Compound: CCC[C@]1(OC=O)CC[C@H]2[C@@H]3CCC4=CC(=O)CC[C@]4(C)[C@H]3CC[C@@]21C [17β-Formyloxy-17α-(n-propyl)androst-4-en-3-one]
- Activity relative to the parent alcohol, by cholesterol content [2, 19]: about 40%
- Flank organ development (in words) [2, 19]: no effect
- Flank organ size (in words) [2, 19]: slightly reduced flank organ size
- Reduction of flank organ cholesterol content [2, 19]: 32%
- Reduction of flank organ wet weight [2, 19]: about 13%

Compound: CCC(=O)O[C@H]1CC[C@H]2[C@@H]3CCC4=CC(=O)CC[C@]4(C)[C@H]3CC[C@]12C [TP, testosterone propionate, reference compound]
- Flank Organ Cholest., Mean ± S.E. [2, 20]: 238 ± 26 µg
- Flank Organ Diameter, Mean ± S.E. [2, 20]: 4.30±0.15 mm
- Flank Organ Wet Wgt, Mean ± S.E. [2, 20]: 42.0 ± 1.2 mg
- Flank Organ Develop. (Med. Score) ([2]; 1 μg TP alone): 4.0
- Endocr. Organ Wgts, Mean ± S.E.: Adrenal Gland ([3]; Group II: 1 μg TP alone): 11.8±0.81 Mg
- Endocr. Organ Wgts, Mean ± S.E.: Seminal Vesicle ([3]; Group II: 1 μg TP alone): 35.0±2.9 Mg
- Endocr. Organ Wgts, Mean ± S.E.: Thymus Gland ([3]; Group II: 1 μg TP alone): 55.2±6.5 Mg

Compound: C[C@]12CC[C@H]3[C@@H](CCC4=CC(=O)CC[C@@]43C)[C@@H]1CC[C@@H]2C(=O)O [3-oxoandrost-4-ene-17β-carboxylic acid]
- Block of the action of dihydrotestosterone on flank organ responses ([12]; castrated hamsters): did not, however, block
- Anti-androgenic activity by inhibitory effects on steroid 5α-reductase activity [12]: exhibit anti-androgenic activity
